# Experimental data as given in the NIST ThermoML archive (doi:10.1016/j.tca.2015.01.022).
# Numbers after ± are expanded uncertainties.
# Assay: molar heat capacity at constant pressure
# Conditions: 101.33 kPa, Glass, Small (less than 1 g) adiabatic calorimetry
smiles,measurement,setting,value
CCOS(=O)(=O)[O-].CCn1cc[n+](C)c1 [1-ethyl-3-methylimidazolium ethyl sulfate],molar heat capacity at constant pressure,5 K,1.02 ± 0.04 J/K/mol
same,molar heat capacity at constant pressure,7.21 K,2.892 ± 0.072 J/K/mol
same,molar heat capacity at constant pressure,7.52 K,3.232 ± 0.078 J/K/mol
same,molar heat capacity at constant pressure,7.89 K,3.662 ± 0.086 J/K/mol
same,molar heat capacity at constant pressure,8.26 K,4.116 ± 0.093 J/K/mol
same,molar heat capacity at constant pressure,8.64 K,4.61 ± 0.1 J/K/mol
same,molar heat capacity at constant pressure,9.02 K,5.113 ± 0.11 J/K/mol
same,molar heat capacity at constant pressure,9.4 K,5.662 ± 0.12 J/K/mol
same,molar heat capacity at constant pressure,9.78 K,6.226 ± 0.13 J/K/mol
same,molar heat capacity at constant pressure,10 K,6.55 ± 0.14 J/K/mol
same,molar heat capacity at constant pressure,10.17 K,6.81 ± 0.14 J/K/mol
same,molar heat capacity at constant pressure,10.66 K,7.609 ± 0.15 J/K/mol
same,molar heat capacity at constant pressure,11.26 K,8.587 ± 0.16 J/K/mol
same,molar heat capacity at constant pressure,11.87 K,9.634 ± 0.17 J/K/mol
same,molar heat capacity at constant pressure,12.47 K,10.71 ± 0.18 J/K/mol
same,molar heat capacity at constant pressure,13.09 K,11.85 ± 0.19 J/K/mol
same,molar heat capacity at constant pressure,13.7 K,13.01 ± 0.2 J/K/mol
same,molar heat capacity at constant pressure,14.32 K,14.24 ± 0.21 J/K/mol
same,molar heat capacity at constant pressure,14.95 K,15.52 ± 0.22 J/K/mol
same,molar heat capacity at constant pressure,15 K,15.63 ± 0.23 J/K/mol
same,molar heat capacity at constant pressure,15.69 K,17.06 ± 0.23 J/K/mol
same,molar heat capacity at constant pressure,16.54 K,18.87 ± 0.24 J/K/mol
same,molar heat capacity at constant pressure,17.39 K,20.71 ± 0.25 J/K/mol
same,molar heat capacity at constant pressure,18.24 K,22.56 ± 0.25 J/K/mol
same,molar heat capacity at constant pressure,19.1 K,24.43 ± 0.26 J/K/mol
same,molar heat capacity at constant pressure,19.96 K,26.32 ± 0.26 J/K/mol
same,molar heat capacity at constant pressure,20 K,26.45 ± 0.27 J/K/mol
same,molar heat capacity at constant pressure,21.16 K,29.04 ± 0.28 J/K/mol
same,molar heat capacity at constant pressure,22.71 K,32.61 ± 0.3 J/K/mol
same,molar heat capacity at constant pressure,24.26 K,36.22 ± 0.31 J/K/mol
same,molar heat capacity at constant pressure,25 K,37.93 ± 0.32 J/K/mol
same,molar heat capacity at constant pressure,25.81 K,39.86 ± 0.33 J/K/mol
same,molar heat capacity at constant pressure,27.37 K,43.43 ± 0.34 J/K/mol
same,molar heat capacity at constant pressure,28.95 K,47.02 ± 0.35 J/K/mol
same,molar heat capacity at constant pressure,30 K,49.4 ± 0.32 J/K/mol
same,molar heat capacity at constant pressure,30.54 K,50.61 ± 0.32 J/K/mol
same,molar heat capacity at constant pressure,32.28 K,54.42 ± 0.34 J/K/mol
same,molar heat capacity at constant pressure,33.12 K,56.24 ± 0.35 J/K/mol
same,molar heat capacity at constant pressure,35 K,60.18 ± 0.37 J/K/mol
same,molar heat capacity at constant pressure,35.01 K,60.28 ± 0.37 J/K/mol
same,molar heat capacity at constant pressure,36.91 K,64.15 ± 0.39 J/K/mol
same,molar heat capacity at constant pressure,38.82 K,68 ± 0.41 J/K/mol
same,molar heat capacity at constant pressure,40 K,70.37 ± 0.43 J/K/mol
same,molar heat capacity at constant pressure,40.72 K,71.74 ± 0.43 J/K/mol
same,molar heat capacity at constant pressure,42.73 K,75.61 ± 0.45 J/K/mol
same,molar heat capacity at constant pressure,44.84 K,79.65 ± 0.48 J/K/mol
same,molar heat capacity at constant pressure,45 K,79.98 ± 0.48 J/K/mol
same,molar heat capacity at constant pressure,46.95 K,83.58 ± 0.5 J/K/mol
same,molar heat capacity at constant pressure,49.06 K,87.43 ± 0.52 J/K/mol
same,molar heat capacity at constant pressure,50 K,89 ± 0.53 J/K/mol
same,molar heat capacity at constant pressure,51.17 K,91.07 ± 0.54 J/K/mol
same,molar heat capacity at constant pressure,53.29 K,94.63 ± 0.55 J/K/mol
same,molar heat capacity at constant pressure,55.41 K,98.01 ± 0.57 J/K/mol
same,molar heat capacity at constant pressure,57.53 K,101.3 ± 0.6 J/K/mol
same,molar heat capacity at constant pressure,59.66 K,104.5 ± 0.6 J/K/mol
same,molar heat capacity at constant pressure,60 K,105.1 ± 0.6 J/K/mol
same,molar heat capacity at constant pressure,61.79 K,107.7 ± 0.6 J/K/mol
same,molar heat capacity at constant pressure,63.92 K,110.7 ± 0.6 J/K/mol
same,molar heat capacity at constant pressure,66.06 K,113.7 ± 0.7 J/K/mol
same,molar heat capacity at constant pressure,68.21 K,116.6 ± 0.7 J/K/mol
same,molar heat capacity at constant pressure,70 K,119 ± 0.7 J/K/mol
same,molar heat capacity at constant pressure,70.35 K,119.5 ± 0.7 J/K/mol
same,molar heat capacity at constant pressure,72.59 K,122.4 ± 0.7 J/K/mol
same,molar heat capacity at constant pressure,74.94 K,125.3 ± 0.7 J/K/mol
same,molar heat capacity at constant pressure,77.3 K,128.3 ± 0.7 J/K/mol
same,molar heat capacity at constant pressure,79.66 K,131.2 ± 0.8 J/K/mol
same,molar heat capacity at constant pressure,80 K,131.5 ± 0.7 J/K/mol
same,molar heat capacity at constant pressure,80.4 K,132.1 ± 0.8 J/K/mol
same,molar heat capacity at constant pressure,82.02 K,133.9 ± 0.8 J/K/mol
same,molar heat capacity at constant pressure,82.22 K,134.2 ± 0.8 J/K/mol
same,molar heat capacity at constant pressure,84.05 K,136.2 ± 0.8 J/K/mol
same,molar heat capacity at constant pressure,84.39 K,136.7 ± 0.8 J/K/mol
same,molar heat capacity at constant pressure,85.88 K,138.3 ± 0.8 J/K/mol
same,molar heat capacity at constant pressure,87.71 K,140.4 ± 0.8 J/K/mol
same,molar heat capacity at constant pressure,89.54 K,142.4 ± 0.8 J/K/mol
same,molar heat capacity at constant pressure,90 K,143 ± 0.8 J/K/mol
same,molar heat capacity at constant pressure,91.38 K,144.4 ± 0.8 J/K/mol
same,molar heat capacity at constant pressure,93.22 K,146.5 ± 0.8 J/K/mol
same,molar heat capacity at constant pressure,95.06 K,148.5 ± 0.8 J/K/mol
same,molar heat capacity at constant pressure,96.91 K,150.4 ± 0.8 J/K/mol
same,molar heat capacity at constant pressure,98.76 K,152.4 ± 0.8 J/K/mol
same,molar heat capacity at constant pressure,100 K,153.7 ± 0.8 J/K/mol
same,molar heat capacity at constant pressure,100.61 K,154.3 ± 0.8 J/K/mol
same,molar heat capacity at constant pressure,102.46 K,156.2 ± 0.9 J/K/mol
same,molar heat capacity at constant pressure,104.31 K,158 ± 0.9 J/K/mol
same,molar heat capacity at constant pressure,106.16 K,159.9 ± 0.9 J/K/mol
same,molar heat capacity at constant pressure,108.05 K,161.9 ± 0.9 J/K/mol
same,molar heat capacity at constant pressure,109.91 K,163.7 ± 0.9 J/K/mol
same,molar heat capacity at constant pressure,110 K,163.7 ± 0.9 J/K/mol
same,molar heat capacity at constant pressure,111.77 K,165.5 ± 0.9 J/K/mol
same,molar heat capacity at constant pressure,113.63 K,167.3 ± 0.9 J/K/mol
same,molar heat capacity at constant pressure,115.49 K,169.2 ± 0.9 J/K/mol
same,molar heat capacity at constant pressure,117.36 K,171 ± 0.9 J/K/mol
same,molar heat capacity at constant pressure,119.23 K,172.8 ± 0.9 J/K/mol
same,molar heat capacity at constant pressure,120 K,173.5 ± 0.9 J/K/mol
same,molar heat capacity at constant pressure,121.1 K,174.6 ± 0.9 J/K/mol
same,molar heat capacity at constant pressure,122.98 K,176.4 ± 1 J/K/mol
same,molar heat capacity at constant pressure,124.42 K,177.8 ± 1 J/K/mol
same,molar heat capacity at constant pressure,124.85 K,178.2 ± 1 J/K/mol
same,molar heat capacity at constant pressure,126.41 K,179.7 ± 1 J/K/mol
same,molar heat capacity at constant pressure,126.73 K,180 ± 1 J/K/mol
same,molar heat capacity at constant pressure,128.28 K,181.4 ± 1 J/K/mol
same,molar heat capacity at constant pressure,128.61 K,181.8 ± 1 J/K/mol
same,molar heat capacity at constant pressure,130 K,183.1 ± 1 J/K/mol
same,molar heat capacity at constant pressure,130.16 K,183.3 ± 1 J/K/mol
same,molar heat capacity at constant pressure,130.5 K,183.6 ± 1 J/K/mol
same,molar heat capacity at constant pressure,132.03 K,185.1 ± 1 J/K/mol
same,molar heat capacity at constant pressure,132.38 K,185.4 ± 1 J/K/mol
same,molar heat capacity at constant pressure,133.91 K,186.9 ± 1 J/K/mol
same,molar heat capacity at constant pressure,134.27 K,187.2 ± 1 J/K/mol
same,molar heat capacity at constant pressure,135.79 K,188.7 ± 1 J/K/mol
same,molar heat capacity at constant pressure,136.16 K,189.1 ± 1 J/K/mol
same,molar heat capacity at constant pressure,137.67 K,190.6 ± 1 J/K/mol
same,molar heat capacity at constant pressure,138.05 K,190.9 ± 1 J/K/mol
same,molar heat capacity at constant pressure,139.55 K,192.4 ± 1 J/K/mol
same,molar heat capacity at constant pressure,139.95 K,192.7 ± 1 J/K/mol
same,molar heat capacity at constant pressure,140 K,192.8 ± 1.1 J/K/mol
same,molar heat capacity at constant pressure,141.43 K,194.2 ± 1 J/K/mol
same,molar heat capacity at constant pressure,141.84 K,194.5 ± 1 J/K/mol
same,molar heat capacity at constant pressure,143.31 K,196 ± 1 J/K/mol
same,molar heat capacity at constant pressure,143.74 K,196.4 ± 1.1 J/K/mol
same,molar heat capacity at constant pressure,145.19 K,197.9 ± 1.1 J/K/mol
same,molar heat capacity at constant pressure,145.64 K,198.2 ± 1.1 J/K/mol
same,molar heat capacity at constant pressure,147.07 K,199.7 ± 1.1 J/K/mol
same,molar heat capacity at constant pressure,147.53 K,200.1 ± 1.1 J/K/mol
same,molar heat capacity at constant pressure,148.95 K,201.6 ± 1.1 J/K/mol
same,molar heat capacity at constant pressure,149.43 K,202 ± 1.1 J/K/mol
same,molar heat capacity at constant pressure,150 K,202.6 ± 1.1 J/K/mol
same,molar heat capacity at constant pressure,150.83 K,203.5 ± 1.1 J/K/mol
same,molar heat capacity at constant pressure,151.33 K,203.9 ± 1.1 J/K/mol
same,molar heat capacity at constant pressure,152.71 K,205.3 ± 1.1 J/K/mol
same,molar heat capacity at constant pressure,153.23 K,205.8 ± 1.1 J/K/mol
same,molar heat capacity at constant pressure,154.59 K,207.2 ± 1.1 J/K/mol
same,molar heat capacity at constant pressure,155.13 K,207.8 ± 1.1 J/K/mol
same,molar heat capacity at constant pressure,155.16 K,207.7 ± 1.1 J/K/mol
same,molar heat capacity at constant pressure,156.47 K,209.1 ± 1.1 J/K/mol
same,molar heat capacity at constant pressure,157.04 K,209.7 ± 1.1 J/K/mol
same,molar heat capacity at constant pressure,157.27 K,209.9 ± 1.1 J/K/mol
same,molar heat capacity at constant pressure,158.34 K,211.1 ± 1.1 J/K/mol
same,molar heat capacity at constant pressure,158.94 K,211.7 ± 1.1 J/K/mol
same,molar heat capacity at constant pressure,159.27 K,212 ± 1.1 J/K/mol
same,molar heat capacity at constant pressure,160 K,212.7 ± 1.2 J/K/mol
same,molar heat capacity at constant pressure,160.22 K,213.1 ± 1.1 J/K/mol
same,molar heat capacity at constant pressure,160.84 K,213.8 ± 1.1 J/K/mol
same,molar heat capacity at constant pressure,161.27 K,214.3 ± 1.1 J/K/mol
same,molar heat capacity at constant pressure,162.09 K,215 ± 1.1 J/K/mol
same,molar heat capacity at constant pressure,162.75 K,215.8 ± 1.1 J/K/mol
same,molar heat capacity at constant pressure,163.26 K,216.4 ± 1.1 J/K/mol
same,molar heat capacity at constant pressure,163.96 K,217.2 ± 1.2 J/K/mol
same,molar heat capacity at constant pressure,164.67 K,217.8 ± 1.2 J/K/mol
same,molar heat capacity at constant pressure,165.26 K,218.6 ± 1.2 J/K/mol
same,molar heat capacity at constant pressure,165.83 K,219.3 ± 1.2 J/K/mol
same,molar heat capacity at constant pressure,166.58 K,220.1 ± 1.2 J/K/mol
same,molar heat capacity at constant pressure,167.25 K,221 ± 1.2 J/K/mol
same,molar heat capacity at constant pressure,167.7 K,221.5 ± 1.2 J/K/mol
same,molar heat capacity at constant pressure,168.51 K,222.3 ± 1.2 J/K/mol
same,molar heat capacity at constant pressure,169.24 K,223.4 ± 1.2 J/K/mol
same,molar heat capacity at constant pressure,169.57 K,223.8 ± 1.2 J/K/mol
same,molar heat capacity at constant pressure,170 K,224.3 ± 1.2 J/K/mol
same,molar heat capacity at constant pressure,170.43 K,224.8 ± 1.2 J/K/mol
same,molar heat capacity at constant pressure,171.36 K,226.2 ± 1.2 J/K/mol
same,molar heat capacity at constant pressure,171.44 K,226.5 ± 1.2 J/K/mol
same,molar heat capacity at constant pressure,172.36 K,227.7 ± 1.2 J/K/mol
same,molar heat capacity at constant pressure,173.31 K,229.1 ± 1.2 J/K/mol
same,molar heat capacity at constant pressure,173.44 K,229.3 ± 1.2 J/K/mol
same,molar heat capacity at constant pressure,174.29 K,230.5 ± 1.2 J/K/mol
same,molar heat capacity at constant pressure,175.18 K,232 ± 1.2 J/K/mol
same,molar heat capacity at constant pressure,175.43 K,232.4 ± 1.2 J/K/mol
same,molar heat capacity at constant pressure,176.22 K,233.7 ± 1.2 J/K/mol
same,molar heat capacity at constant pressure,177.04 K,235.4 ± 1.2 J/K/mol
same,molar heat capacity at constant pressure,177.41 K,236.3 ± 1.2 J/K/mol
same,molar heat capacity at constant pressure,178.16 K,237.7 ± 1.3 J/K/mol
same,molar heat capacity at constant pressure,178.9 K,239.4 ± 1.3 J/K/mol
same,molar heat capacity at constant pressure,179.39 K,240.8 ± 1.3 J/K/mol
same,molar heat capacity at constant pressure,180 K,242.6 ± 1.3 J/K/mol
same,molar heat capacity at constant pressure,180.1 K,242.9 ± 1.3 J/K/mol
